One data set deals with B. cenocepacia. Conditions: J. Antimicrob. Chemother., 2002, 50, 265-269; cited from earlier work.
A further data set relates to P. aeruginosa. To be noted: J. Antimicrob. Chemother., 1999, 43, 345-349; cited from earlier work.
A further data set concerns human A549 cells. In words: WST-1 cytotoxicity assay. In kind it is cell-based. Conditions: compared at 44 μM, 4 hours at 37° C. As to the method:
The cytotoxicity of the silver-containing species were tested against human A549 cells (from the lungs) using the WST-1 Assay (manufactured by Roche). The silver-bearing species were diluted to different extents and allowed to incubate with the human cells at 37° C. for 4 hours. In the presence of dead cells, the enzymatic assay gave a pink coloured solution (as shown by the box in FIG. 4A), while the living cells gave a brown solution (cells that are outside the box region in FIG. 4A).
The percentage of human dead cells can be quantified spectroscopically by measuring the optical density of the solution at a wavelength of 440 nm. To examine the antimicrobial potency and cytotoxicity of silver in different formulations (AgNPs, DNA-templated AgNCs and AgNO3), the percentage of bacteria cells inhibited (y-axis representing the antibacterial potency) was plotted against the percentage of human A549 cells killed (x-axis representing the eukaryotic cytotoxicity) in FIG. 4B. Here, the relative percentages of human A549 cells killed were compared at a concentration of 44 μM for all silver-containing species.

Data set [1] concerns multidrug-resistant bacteria P. aeruginosa. In words: Inhibition of P. aeruginosa growth in solution culture. In kind it is cell-based, Pseudomonas aeruginosa. Conditions: overnight at 37° C., shaking 250 rpm; AgNO3 180 μM. Here is the method: Other than DNA-based surface chemistry, the size-dependent controlled-release of Ag^+ from the DNA-templated AgNCs (sub-2nm) were also compared with the citrate-capped silver nanoparticles (AgNPs, 15 nm) and AgNO3 (free flow of Ag^+) against bacterial growth under the same experimental conditions. AgNPs were synthesized based on the Turkevich method whereby an aqueous solution of trisodium citrate was brought to boil, followed by addition of AgNO3 aq solution (310 μM). The reaction was then boiled till a yellow solution was obtained. For the AgNO3, 180 μM of AgNO3 was used for this example.

SMILES strings stand for the structures. Converted amounts (≈) assume the structure as drawn.

As for `O=C(O)c1cn(C2CC2)c2cc(N3CCNCC3)c(F)cc2c1=O` [ciprofloxacin], the MIC50 (in general, an inhibitory concentration at the 50% level, which refers to growth in some studies and to a panel of isolates in others) in the data set on B. cenocepacia is 0.36 µM (≈ 0.119 µg/mL); in the data set on P. aeruginosa it was 0.27 µM (≈ 0.0895 µg/mL).

With `O=[N+]([O-])[O-].[Ag+]` [AgNO3], in the data set with human A549 cells, the “cytotoxicity to human A549 cells” value is “high toxicity”. Besides, in data set [1], the “P. aeruginosa growth inhibited” value was “up to 97%”.
